Columns and labels:
dallisgrass = test: Test D dallisgrass; format: in vivo, Paspalum dilatatum; conditions: Preemergence, 0 to 100 scale
In short: (§1)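 Weed seeds planted in sandy loam; species kept apart in individual pots or compartments. Preemergence tests: treatment to soil surface within one day. Greenhouse growth, then visual injury scoring at 14–21 days (0–100).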

guineagrass = test: Test D guineagrass; format: in vivo, Panicum maximum; conditions: Preemergence, 0 to 100 scale
In short: as §1

large crabgrass = test: Test D large crabgrass; format: in vivo, Digitaria sanguinalis; conditions: Preemergence, 0 to 100 scale
In short: as §1

surinam grass = test: Test D surinam grass; format: in vivo, Brachiaria decumbens; conditions: Preemergence, 0 to 100 scale
In short: as §1

common groundsel = test: Test D common groundsel; format: in vivo, Senecio vulgaris; conditions: Preemergence, 0 to 100 scale
In short: as §1

Spanishneedles = test: Test D Spanishneedles; format: in vivo, Bidens bipinnata; conditions: Preemergence, 0 to 100 scale
In short: as §1

common pursiane = test: Test D common purslane; format: in vivo, Portulaca oleracea
In short: as §1

Johnson grass = test: Test D Johnson grass; format: in vivo, Sorghum halepense; conditions: Preemergence, 0 to 100 scale
In short: as §1

pitted morningglory = test: Test D pitted morningglory; format: in vivo, Ipomoea lacunosa; conditions: Preemergence, 0 to 100 scale
In short: as §1

Green foxtail [1] = test: Test D green foxtail; format: in vivo
In short: as §1

Green foxtail [2] = test: Test D green foxtail; format: in vivo; conditions: Preemergence, 0 to 100 scale
In short: as §1

itchgrass = test: Test D itchgrass; format: in vivo, Rottboellia exaltata; conditions: Preemergence, 0 to 100 scale
In short: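 Scoring used a 0–100 visual injury scale, with 0 meaning no effect and 100 complete control, assessed 14–21 days after application alongside untreated pots. Preemergence treatments went onto sandy loam surfaces of separately potted seeds within a day of sowing.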

bermuda-grass = test: Test D bermudagrass; format: in vivo, Cynodon dactylon; conditions: Preemergence, 0 to 100 scale
In short: as §1

common ragweed = test: Test D common ragweed; format: in vivo, Ambrosia elatior; conditions: Preemergence, 0 to 100 scale
In short: as §1

sandbur = test: Test D sandbur; format: in vivo, Cenchrus echinatus; conditions: Preemergence, 0 to 100 scale
In short: as §1

[3] = Rate 16 g/ha, 0 no injury, 100 complete control
[4] = Rate 32 g/ha, 0 no injury, 100 complete control
[5] = Rate 64 g/ha, 0 no injury, 100 complete control
[6] = Rate 125 g/ha, 0 no injury, 100 complete control
[7] = Rate 16 g/ha; Preemergence; 0 to 100 scale, 0 no injury, 100 complete control
[8] = Rate 32 g/ha; Preemergence; 0 to 100 scale, 0 no injury, 100 complete control
[9] = Rate 64 g/ha, Preemergence; 0 to 100 scale, 0 no injury, 100 complete control
[10] = Rate 125 g/ha, Preemergence; 0 to 100 scale, 0 no injury, 100 complete control
[11] = Rate 250 g/ha; Preemergence; 0 to 100 scale
[12] = Rate 500 g/ha, Preemergence; 0 to 100 scale
[13] = Rate 500 g/ha; Preemergence; 0 to 100 scale

Structure (SMILES): CCn1c(=O)on(C(=O)N(c2ccc(Cl)cc2)C(C)C)c1=O [Compound 108]
- Plant response rating, Dallisgrass (dallisgrass; [3]): 40
- Plant response rating, Dallisgrass (dallisgrass; [4]): 50
- Plant response rating, Dallisgrass (dallisgrass; [5]): 100
- Plant response rating, Dallisgrass (dallisgrass; [6]): 100
- Plant response rating, Dallisgrass (dallisgrass; Rate 250 g/ha): 100
- Plant response rating, Dallisgrass (dallisgrass; Rate 500 g/ha): 100
- Plant response rating, Guineagrass (guineagrass; [3]): 0
- Plant response rating, Guineagrass (guineagrass; [4]): 85
- Plant response rating, Guineagrass (guineagrass; [5]): 98
- Plant response rating, Guineagrass (guineagrass; [6]): 98
- Plant response rating, Guineagrass (guineagrass; Rate 250 g/ha): 100
- Plant response rating, Guineagrass (guineagrass; Rate 500 g/ha): 100
- Plant response rating, Large crabgrass (large crabgrass; [3]): 85
- Plant response rating, Large crabgrass (large crabgrass; [4]): 100
- Plant response rating, Large crabgrass (large crabgrass; [5]): 100
- Plant response rating, Large crabgrass (large crabgrass; [6]): 100
- Plant response rating, Large crabgrass (large crabgrass; Rate 250 g/ha): 100
- Plant response rating, Large crabgrass (large crabgrass; Rate 500 g/ha): 100
- Plant response rating, Surinam grass (surinam grass; [3]): 0
- Plant response rating, Surinam grass (surinam grass; [4]): 65
- Surinam grass plant response rating (surinam grass; [5]): 65
- Surinam grass plant response rating (surinam grass; [6]): 98
- Plant response rating, Surinam grass (surinam grass; Rate 250 g/ha): 98
- Plant response rating, Surinam grass (surinam grass; Rate 500 g/ha): 100
- Plant response rating, Com. groundsel (common groundsel; [3]): 65
- Plant response rating, Com. groundsel (common groundsel; [4]): 75
- Plant response rating, Com. groundsel (common groundsel; [5]): 85
- Plant response rating, Com. groundsel (common groundsel; [6]): 100
- Plant response rating, Com. groundsel (common groundsel; Rate 250 g/ha): 100
- Plant response rating, Com. groundsel (common groundsel; Rate 500 g/ha): 100
- Plant response rating, Spanishneedles (Spanishneedles; [3]): 0
- Plant response rating, Spanishneedles (Spanishneedles; [4]): 0
- Spanishneedles plant response rating (Spanishneedles; [5]): 0
- Spanishneedles plant response rating (Spanishneedles; [6]): 0
- Plant response rating, Spanishneedles (Spanishneedles; Rate 500 g/ha): 20
- Plant response rating, C. purslane (common pursiane; [7]): 0
- Plant response rating, C. purslane (common pursiane; [8]): 0
- Plant response rating, C. purslane (common pursiane; [9]): 0
- Plant response rating, C. purslane (common pursiane; [10]): 0
- Plant response rating, C. purslane (common pursiane; [11]): 0
- Plant response rating, C. purslane (common pursiane; [12]): 80
- Plant response rating, C. purslane (common pursiane; [13]): 0
- Plant response rating, Johnsongrass (Johnson grass; [3]): 0
- Plant response rating, Johnsongrass (Johnson grass; [4]): 20
- Plant response rating, Johnsongrass (Johnson grass; [5]): 20
- Plant response rating, Johnsongrass (Johnson grass; [6]): 40
- Plant response rating, Johnsongrass (Johnson grass; Rate 250 g/ha): 85
- Plant response rating, Johnsongrass (Johnson grass; Rate 500 g/ha): 85
- Plant response rating, P. morninglory (pitted morningglory; [3]): 0
- Plant response rating, P. morninglory (pitted morningglory; [4]): 0
- Plant response rating, P. morninglory (pitted morningglory; [5]): 0
- Plant response rating, P. morninglory (pitted morningglory; [6]): 0
- Plant response rating, P. morninglory (pitted morningglory; Rate 250 g/ha): 0
- Plant response rating, P. morninglory (pitted morningglory; Rate 500 g/ha): 0
- Plant response rating, Green foxtail (Green foxtail [1]; Preemergence; Rate 16 g/ha; 0 to 100 scale, 0 no injury, 100 complete control): 40
- Plant response rating, Green foxtail (Green foxtail [1]; Preemergence; Rate 32 g/ha; 0 to 100 scale, 0 no injury, 100 complete control): 100
- Plant response rating, Green foxtail (Green foxtail [1]; [7]): 40
- Plant response rating, Green foxtail (Green foxtail [1]; [8]): 100
- Green foxtail plant response rating (Green foxtail [1]; [9]): 100
- Plant response rating, Green foxtail (Green foxtail [1]; [9]): 100
- Green foxtail plant response rating (Green foxtail [1]; [10]): 100
- Plant response rating, Green foxtail (Green foxtail [1]; [10]): 100
- Plant response rating, Green foxtail (Green foxtail [1]; [11]): 100
- Plant response rating, Green foxtail (Green foxtail [1]; [12]): 100
- Plant response rating, Green foxtail (Green foxtail [2]; Rate 250 g/ha): 100
- Plant response rating, Green foxtail (Green foxtail [2]; Rate 500 g/ha): 100
- Plant response rating, Itchgrass (itchgrass; [3]): 0
- Plant response rating, Itchgrass (itchgrass; [4]): 20
- Plant response rating, Itchgrass (itchgrass; [5]): 30
- Plant response rating, Itchgrass (itchgrass; [6]): 40
- Plant response rating, Itchgrass (itchgrass; Rate 250 g/ha): 98
- Plant response rating, Itchgrass (itchgrass; Rate 500 g/ha): 100
- Plant response rating, Bermudagrass (bermuda-grass; [3]): 85
- Plant response rating, Bermudagrass (bermuda-grass; [4]): 98
- Plant response rating, Bermudagrass (bermuda-grass; [5]): 100
- Plant response rating, Bermudagrass (bermuda-grass; [6]): 100
- Plant response rating, Bermudagrass (bermuda-grass; Rate 250 g/ha): 100
- Plant response rating, Bermudagrass (bermuda-grass; Rate 500 g/ha): 100
- Plant response rating, C. ragweed (common ragweed; [3]): 0
- Plant response rating, C. ragweed (common ragweed; [4]): 0
- Plant response rating, C. ragweed (common ragweed; [5]): 0
- Plant response rating, C. ragweed (common ragweed; [6]): 0
- Plant response rating, C. ragweed (common ragweed; Rate 250 g/ha): 0
- Plant response rating, C. ragweed (common ragweed; Rate 500 g/ha): 80
- Plant response rating, Sandbur (sandbur; [3]): 0
- Plant response rating, Sandbur (sandbur; [4]): 0
- Sandbur plant response rating (sandbur; [5]): 30
- Sandbur plant response rating (sandbur; [6]): 98
- Plant response rating, Sandbur (sandbur; Rate 250 g/ha): 98
- Plant response rating, Sandbur (sandbur; Rate 500 g/ha): 100

Structure (SMILES): CC(C)N(C(=O)n1oc(=O)n(C2CCCCC2)c1=O)c1ccc(F)cc1 [Compound 110]
- Plant response rating, Dallisgrass (dallisgrass; Rate 250 g/ha): 100
- Plant response rating, Dallisgrass (dallisgrass; Rate 500 g/ha): 100
- Plant response rating, Guineagrass (guineagrass; Rate 250 g/ha): 100
- Plant response rating, Guineagrass (guineagrass; Rate 500 g/ha): 100
- Plant response rating, Large crabgrass (large crabgrass; Rate 250 g/ha): 100
- Plant response rating, Large crabgrass (large crabgrass; Rate 500 g/ha): 100
- Plant response rating, Surinam grass (surinam grass; Rate 250 g/ha): 70
- Plant response rating, Surinam grass (surinam grass; Rate 500 g/ha): 85
- Plant response rating, Com. groundsel (common groundsel; Rate 250 g/ha): 20
- Plant response rating, Com. groundsel (common groundsel; Rate 500 g/ha): 20
- Plant response rating, Spanishneedles (Spanishneedles; Rate 500 g/ha): 0
- Plant response rating, C. purslane (common pursiane; [11]): 0
- Plant response rating, C. purslane (common pursiane; [13]): 0
- Plant response rating, Johnsongrass (Johnson grass; Rate 250 g/ha): 20
- Plant response rating, Johnsongrass (Johnson grass; Rate 500 g/ha): 45
- Plant response rating, P. morninglory (pitted morningglory; Rate 250 g/ha): 0
- Plant response rating, P. morninglory (pitted morningglory; Rate 500 g/ha): 0
- Plant response rating, Green foxtail (Green foxtail [1]; [11]): 100
- Plant response rating, Green foxtail (Green foxtail [1]; [12]): 100
- Plant response rating, Green foxtail (Green foxtail [2]; Rate 250 g/ha): 100
- Plant response rating, Green foxtail (Green foxtail [2]; Rate 500 g/ha): 100
- Plant response rating, Itchgrass (itchgrass; Rate 250 g/ha): 40
- Plant response rating, Itchgrass (itchgrass; Rate 500 g/ha): 40
- Plant response rating, Bermudagrass (bermuda-grass; Rate 250 g/ha): 100
- Plant response rating, Bermudagrass (bermuda-grass; Rate 500 g/ha): 100
- Plant response rating, C. ragweed (common ragweed; Rate 250 g/ha): 0
- Plant response rating, C. ragweed (common ragweed; Rate 500 g/ha): 0
- Plant response rating, Sandbur (sandbur; Rate 250 g/ha): 98
- Plant response rating, Sandbur (sandbur; Rate 500 g/ha): 98

— US6737383B1, “Herbicidal oxadiazolidines” (priority 1999, dated 2004)
